Patent US6482841B1, “Pyridyl compounds and pharmaceutical compositions containing them” (Cermol S.A., priority 1997, dated 2002)

Experiments:
[1] = test system: isolated guinea-pig ventricular myocytes; assay: Protection of isolated ventricular myocytes from hypercontracture obtained by incubation under N2 atmosphere; format: cell-based; details: 30 nM, with reference to vehicle-treated cells
Description: (§1) Isolated guinea-pig ventricular myocytes were obtained following the method described by Powell et al. (J. Physiol., 1980, 102: 131) as modified by Levi et al. (J. Physiol., 1990, 425:9P). Cell hypercontracture and death was obtained either by incubation under N2 atmosphere or by incubation with veratridine which induced important changes in the ionic homeostase of cardiomyocytes (Hiroko Hashizume et al., European Journal of Pharmacology, […], 271: 1-8). Results expressed as percentage of cells protected from hypercontracture i.e. maintaining its rod-shaped morphology with reference to vehicle-treated cells are given in the tables I and II hereafter.

[2] = test system: isolated guinea-pig ventricular myocytes; assay: Protection of isolated ventricular myocytes from hypercontracture obtained by incubation with veratridine; format: cell-based; details: 1 μM, with reference to vehicle-treated cells
Description: as §1

[3] = test system: guinea-pig ventricular cardiomyocytes action potential; assay: Action potential of ventricular cardiomyocytes in the presence of veratridine (patch clamp); format: cell-based
Description: (§2) In order to confirm the cardioprotection, the activity of one of the most interesting compound (example 31 according to the invention) was tested on guinea-pig ventricular cardiomyocytes action potential (AP) in the presence of veratridine or in anoxic condition. The action potential (AP) time courses of guinea-pig ventricular cardiomyocytes treated with veratridine or made anoxic by incubation under N2 atmosphere were measured (patch clamp technique) in absence and presence of the compound of example 31 according to the invention. […] In anoxic conditions, there is a shortening of cardiomyocyte action potential duration related mainly with an activation of K+-ATP dependent current.

[4] = test system: guinea-pig ventricular cardiomyocytes action potential; assay: Action potential of ventricular cardiomyocytes in anoxic condition under N2 atmosphere (patch clamp); format: cell-based; details: 100-300 nM
Description: as §2

anaesthetised rats = assay: In vivo cardioprotective effect: coronary occlusion and reperfusion in anaesthetised rats; parameters: species or system rat; details: 2 × 20 mg/kg orally (one day and one hour before the experiment)
Description: Cardiac death and arrhythmias were induced by the coronary occlusion and reperfusion method in anaesthetised rats according to the method of Seyle et al. (Angiology, 1960, 11, 398-407) modified by Krzeminski T. (“proceedings of 7th Freiburg Focus of Biomeasurement”, Strasbourg, 16-19 September 1991) Cardiovascular and Respiratory in vivo Studies, Biomesstechnik, Verlag March GmbH, Germany) and according to the LAMBETH conventions (Walker M. J. A. et al., Cardiovasc Re., […], 22, 447-455). The products have been administered orally (one day and one hour before the experiment). They are given in percentage of protection against the mortality and the arrhythmias (ventricular fibrillations).

melting point | Structure (SMILES) | % Protection (cells protected from hypercontracture) [1] | % Protection (cells protected from hypercontracture) [2] | Prolongation of cardiomyocyte action potential duration induced by veratridine ([3]; 100-300 nM, veratridine) | Influence on the normal action potential ([3]; normal action potential) | Shortening of cardiomyocyte action potential duration in anoxic conditions (K+-ATP dependent current) [4] | % PROTECTION AGAINST DEATH (anaesthetised rats) | % PROTECTION AGAINST VENTRICULAR FIBRILLATIONS (anaesthetised rats)
 | COC(=O)c1c(C)nc(C)c(C(=O)O)c1-c1ccccc1[N+](=O)[O-] [Example 31, 2,6-Dimethyl-4-(2-nitrophenyl) pyridine-3,5-dicarboxylic acid 3-methyl ester] | 58% | 64% | prevents | does not influence significantly | inhibited dose-dependently and strongly | 85.7% | 73.4%
 | COC(=O)c1c(C)nc(C)c(C(=O)OCC2CCCO2)c1-c1ccccc1[N+](=O)[O-] (centres unmarked) [Example 12, 2,6-Dimethyl-4-(2-nitrophenyl) pyridine-3,5-dicarboxylic acid 3-methyl ester 5-(tetrahydrofuran-2-ylmethyl) ester] | 80% | 57% |  |  |  | 100% | 100%
 | COC(=O)c1c(C)nc(C)c(C(=O)OCC(C)C)c1-c1ccccc1[N+](=O)[O-] [Example 23, 2,6-Dimethyl-4-(2-nitrophenyl)-pyridine-3,5-dicarboxylic acid 3-methyl ester 5-isobutyl ester] | 50% | 41.3% |  |  |  | 100% | 75%
196 to 198 °C | COC(=O)c1c(C)nc(C)c(C(=O)OCC2CCCO2)c1-c1cccc(NC(C)=O)c1.Cl (centres unmarked) |  |  |  |  |  |  | 
95 to 97 °C | COC(=O)c1c(C)nc(C)c(C(=O)OCC2CCCO2)c1-c1cccc(O)c1.Cl (centres unmarked) |  |  |  |  |  |  | 
 | COCCOC(=O)c1c(C)nc(C)c(C(=O)OC(C)C)c1-c1cccc([N+](=O)[O-])c1 [Example 22, 2,6-Dimethyl-4-(3-nitrophenyl)-pyridine-3,5-dicarboxylic acid 3-isopropyl ester 5-(2-methoxyethyl) ester] | 63% | 37.5% |  |  |  | 100% | 50%
 | COC(=O)c1c(C)nc(C)c(C(=O)OC)c1-c1ccccc1[N+](=O)[O-] [Example 25, 2,6-Dimethyl-4-(2-nitrophenyl) pyridine-3,5-dicarboxylic acid dimethyl ester] | 50% | 34% |  |  |  | 100% | 50%
 | CCOC(=O)c1c(C)nc(C)c(C(=O)OC)c1-c1cccc([N+](=O)[O-])c1 [Example 24, 2,6-Dimethyl-4-(3-nitrophenyl)pyridine-3,5-dicarboxylic acid 3-ethyl 5-methyl ester] | 60% | 37.5% |  |  |  | 100% | 37.5%
66 to 68 °C | COC(=O)c1c(C)nc(C)c(C(=O)OCC2CCCO2)c1-c1cccc(F)c1 (centres unmarked) [Example 3, 2,6-Dimethyl-4-(3-fluorophenyl) pyridine-3,5-dicarboxylic acid 3-methyl ester 5-(tetrahydrofuran-2-ylmethyl) ester] |  |  |  |  |  |  | 
132 to 134 °C | COC(=O)c1c(C)nc(C)c(C(=O)OCC2CCC(=O)O2)c1-c1ccccc1[N+](=O)[O-] (centres unmarked) [Example 15, 2,6-Dimethyl-4-(2-nitrophenyl) pyridine-3,5-dicarboxylic acid 3-methyl ester 5-(5-oxotetrahydrofuran-2-ylmethyl)ester] |  |  |  |  |  |  | 
75 to 77 °C | Cc1nc(C)c(C(=O)OCC2CCCO2)c(-c2cccc([N+](=O)[O-])c2)c1C(=O)OCC1CCCO1.Cl (centres unmarked) |  |  |  |  |  |  | 
